Zone of inhibition and LC50 data for 2 molecules are collected here from ChEMBL document CHEMBL1146548, “New anthracene derivatives from Coussarea macrophylla” (J Nat Prod, 2003).

One data set concerns Staphylococcus aureus. Put plainly: Antibacterial activity against Staphylococcus aureus at 19 ug/disk by standard filter disk assay. The data set is classed as functional. The following applies: read-out: IZ.
The next data set concerns Artemia salina. In words: Toxicity against Artemia salina. Format: organism-based. The following applies: in vivo.

For the molecule `COc1c(C=O)cc(OC)c2c(OC)c3ccccc3cc12`, the zone of inhibition at 19 µg/disc in the data set on Staphylococcus aureus was 12 mm. Also, the LC50 (as a rule, the concentration that kills 50% of the test population) with Artemia salina is on record as over 280 ppm.
`COCc1c(OC)cc2c(c1OC)C(=O)c1ccccc1C2=O` showed an LC50 in the data set on Artemia salina of over 280 ppm.
